Test results as given in ChEMBL document CHEMBL4002627, “Quinolidene based monocarbonyl curcumin analogues as promising antimycobacterial agents: Synthesis and molecular docking study” (Bioorg Med Chem Lett, 2017).
Values after ≈ are worked out from the molar mass of the structure shown.

Key:
[1] = tested on: Mycobacterium tuberculosis; assay: Antimycobacterial activity against dormant state of Mycobacterium tuberculosis H37Ra by two fold dilution method; type: functional
[2] = tested on: Mycobacterium tuberculosis; assay: Antimycobacterial activity against dormant state of Mycobacterium tuberculosis H37Ra assessed as growth inhibition at 30 ug/ml after 12 days by XTT reduction menadione assay relative to control; type: functional; details: 288 h, read-out: GI
[3] = tested on: Mycobacterium tuberculosis; assay: Antimycobacterial activity against dormant state of Mycobacterium tuberculosis H37Ra assessed as growth inhibition at 10 ug/ml after 12 days by XTT reduction menadione assay relative to control; type: functional; details: 288 h, read-out: GI
[4] = tested on: Mycobacterium tuberculosis; assay: Antimycobacterial activity against dormant state of Mycobacterium tuberculosis H37Ra assessed as growth inhibition at 3 ug/ml after 12 days by XTT reduction menadione assay relative to control; type: functional; details: 288 h, read-out: GI
[5] = Cytotoxicity against human MCF7 cells assessed as growth inhibition at 30 ug/ml after 48 hrs by MTT assay relative to control; type: cell-based; details: read-out: GI
[6] = Cytotoxicity against human MCF7 cells assessed as growth inhibition at 10 ug/ml after 48 hrs by MTT assay relative to control; type: cell-based; details: read-out: GI
[7] = Cytotoxicity against human MCF7 cells assessed as growth inhibition at 3 ug/ml after 48 hrs by MTT assay relative to control; type: cell-based; details: read-out: GI
[8] = Cytotoxicity against human A549 cells assessed as growth inhibition at 30 ug/ml after 48 hrs by MTT assay relative to control; type: cell-based; details: read-out: GI
[9] = Cytotoxicity against human A549 cells assessed as growth inhibition at 10 ug/ml after 48 hrs by MTT assay relative to control; type: cell-based; details: read-out: GI
[10] = Cytotoxicity against human A549 cells assessed as growth inhibition at 3 ug/ml after 48 hrs by MTT assay relative to control; type: cell-based; details: read-out: GI
[11] = Cytotoxicity against human HCT116 cells assessed as growth inhibition at 30 ug/ml after 48 hrs by MTT assay relative to control; type: cell-based, HCT-116; details: read-out: GI
[12] = Cytotoxicity against human HCT116 cells assessed as growth inhibition at 10 ug/ml after 48 hrs by MTT assay relative to control; type: cell-based, HCT-116; details: read-out: GI
[13] = Cytotoxicity against human HCT116 cells assessed as growth inhibition at 3 ug/ml after 48 hrs by MTT assay relative to control; type: cell-based, HCT-116; details: read-out: GI
[14] = (§1) Cytotoxicity against human MCF7 cells assessed as growth inhibition after 48 hrs by MTT assay; type: cell-based; details: MCF7 cells
MCF7 = assay: as §1; type: cell-based; details: mcf7, 48 h
[15] = (§2) Cytotoxicity against human A549 cells assessed as growth inhibition after 48 hrs by MTT assay; type: cell-based; details: A549 cells
A549 = assay: as §2; type: cell-based; details: a549, 48 h
[16] = (§3) Cytotoxicity against human HCT116 cells assessed as growth inhibition after 48 hrs by MTT assay; type: cell-based, HCT-116; details: HCT116 cells
HCT-116 = assay: as §3; type: cell-based; details: hct-116, 48 h
Escherichia coli = assay: Antibacterial activity against Escherichia coli ATCC […] after 8 hrs; type: functional
Pseudomonas fluorescens = assay: Antibacterial activity against Pseudomonas fluorescens ATCC 13525 after 8 hrs; type: functional; details: ATCC 13525, 8 h
Staphylococcus aureus = assay: Antibacterial activity against Staphylococcus aureus ATCC 29213 after 12 hrs; type: functional; details: ATCC 29213, 12 h
Bacillus subtilis = assay: Antibacterial activity against Bacillus subtilis ATCC 23857 after 12 hrs; type: functional; details: ATCC 23857, 12 h
[17] = Selectivity index, ratio of GI90 for human MCF7 cells to MIC90 for dormant state of Mycobacterium tuberculosis H37Ra; type: toxicity; details: read-out: Selectivity Index
[18] = Selectivity index, ratio of GI90 for human A549 cells to MIC90 for dormant state of Mycobacterium tuberculosis H37Ra; type: toxicity; details: read-out: Selectivity Index
[19] = Selectivity index, ratio of GI90 for human HCT116 cells to MIC90 for dormant state of Mycobacterium tuberculosis H37Ra; type: toxicity; details: read-out: Selectivity Index
[20] = Selectivity index, ratio of GI90 for human MCF7 cells to MIC90 for dormant state of dormant state of Mycobacterium bovis BCG; type: toxicity; details: read-out: Selectivity Index
[21] = Selectivity index, ratio of GI90 for human A549 cells to MIC90 for dormant state of dormant state of Mycobacterium bovis BCG; type: toxicity; details: read-out: Selectivity Index
[22] = Selectivity index, ratio of GI90 for human HCT116 cells to MIC90 for dormant state of dormant state of Mycobacterium bovis BCG; type: toxicity; details: read-out: Selectivity Index

Compound | MIC50 [1] | MIC90 [1] | inhibition of growth at 30 µg/mL [2] | inhibition of growth at 10 µg/mL [3] | inhibition of growth at 3 µg/mL [4] | inhibition at 48 h, 30 ug/ml [5] | inhibition at 48 h, 10 ug/ml [6] | inhibition at 48 h, 3 ug/ml [7] | inhibition at 48 h, 30 ug/ml [8] | inhibition at 48 h, 10 ug/ml [9] | inhibition at 48 h, 3 ug/ml [10] | inhibition at 48 h, 30 ug/ml [11] | inhibition at 48 h, 10 ug/ml [12] | inhibition at 48 h, 3 ug/ml [13] | GI50 at 48 h [14] | GI90 (MCF7) | GI50 at 48 h [15] | GI90 (A549) | GI50 at 48 h [16] | GI90 (HCT-116) | further results
Cc1ccc2cc(/C=C3\CNC/C(=C\c4cc5ccc(C)cc5nc4Cl)C3=O)c(Cl)nc2c1 | 8.7 µg/mL (≈ 18.3 µM) | 25.5 µg/mL (≈ 53.8 µM) | 98.3% | 61.2% | 5.8% | 15.7% | 10.1% | -3.4% | 0% | -16.9% | 5.4% | 33.8% | 30.9% | 29.7% | > 100 µg/mL | > 100 µg/mL | > 100 µg/mL | > 100 µg/mL | > 100 µg/mL | > 100 µg/mL | MIC50 (Escherichia coli): > 30 µg/mL; MIC90 (Escherichia coli): > 30 µg/mL; MIC50 (Pseudomonas fluorescens): > 30 µg/mL; MIC90 (Pseudomonas fluorescens): > 30 µg/mL; MIC50 (Staphylococcus aureus): > 30 µg/mL; MIC90 (Staphylococcus aureus): > 30 µg/mL; MIC50 (Bacillus subtilis): > 30 µg/mL; MIC90 (Bacillus subtilis): > 30 µg/mL
COc1ccc2cc(/C=C3\CN(C)C/C(=C\c4cc5ccc(OC)cc5nc4Cl)C3=O)c(Cl)nc2c1 | 2.3 µg/mL (≈ 4.42 µM) | 7.8 µg/mL (≈ 15 µM) | 98.9% | 100% | 66.1% | 44.1% | -5.5% | -13.4% | 0% | 0% | 0% | 14.1% | -1.3% | -8.6% | > 100 µg/mL | > 100 µg/mL | > 100 µg/mL | > 100 µg/mL | > 100 µg/mL | > 100 µg/mL | selectivity ratio [17]: > 12; selectivity ratio [18]: > 12; selectivity ratio [19]: > 12; selectivity ratio [20]: > 10; selectivity ratio [21]: > 10; selectivity ratio [22]: > 10; MIC50 (Escherichia coli): > 30 µg/mL; MIC90 (Escherichia coli): > 30 µg/mL; MIC50 (Pseudomonas fluorescens): > 30 µg/mL; MIC90 (Pseudomonas fluorescens): > 30 µg/mL; MIC50 (Staphylococcus aureus): > 30 µg/mL; MIC90 (Staphylococcus aureus): > 30 µg/mL; MIC50 (Bacillus subtilis): > 30 µg/mL; MIC90 (Bacillus subtilis): > 30 µg/mL
COc1ccc2nc(Cl)c(/C=C3\CNC/C(=C\c4cc5cc(OC)ccc5nc4Cl)C3=O)cc2c1 | 12.1 µg/mL (≈ 23.9 µM) | 27.9 µg/mL (≈ 55.1 µM) | 95.4% | 44.7% | 31.2% | 27.4% | 32.5% | 4.7% | 0% | 0% | 0% | 0% | 0% | 0% | 8.93 µg/mL (≈ 17.6 µM) | > 100 µg/mL | > 100 µg/mL | > 100 µg/mL | 9.83 µg/mL (≈ 19.4 µM) | > 100 µg/mL | MIC50 (Escherichia coli): > 30 µg/mL; MIC90 (Escherichia coli): > 30 µg/mL; MIC50 (Pseudomonas fluorescens): > 30 µg/mL; MIC90 (Pseudomonas fluorescens): > 30 µg/mL; MIC50 (Staphylococcus aureus): > 30 µg/mL; MIC90 (Staphylococcus aureus): > 30 µg/mL; MIC50 (Bacillus subtilis): > 30 µg/mL; MIC90 (Bacillus subtilis): > 30 µg/mL
